The results in this text go back to US9796704B2, “Substituted quinazolines as receptor-type kinase inhibitors” (Symphony Evolution, Inc., priority 2002, dated 2017).

Structures are written as SMILES. pIC50: −log10 of the molar value.

For the experiment, the target named is EGFR (Homo sapiens (Human), UniProt P00533). Description: EGFR kinase inhibition, luciferase-coupled chemiluminescent assay (LCCA). Conditions: read-out: EGFR IC50.
Sequence of EGFR (P00533 672-1210): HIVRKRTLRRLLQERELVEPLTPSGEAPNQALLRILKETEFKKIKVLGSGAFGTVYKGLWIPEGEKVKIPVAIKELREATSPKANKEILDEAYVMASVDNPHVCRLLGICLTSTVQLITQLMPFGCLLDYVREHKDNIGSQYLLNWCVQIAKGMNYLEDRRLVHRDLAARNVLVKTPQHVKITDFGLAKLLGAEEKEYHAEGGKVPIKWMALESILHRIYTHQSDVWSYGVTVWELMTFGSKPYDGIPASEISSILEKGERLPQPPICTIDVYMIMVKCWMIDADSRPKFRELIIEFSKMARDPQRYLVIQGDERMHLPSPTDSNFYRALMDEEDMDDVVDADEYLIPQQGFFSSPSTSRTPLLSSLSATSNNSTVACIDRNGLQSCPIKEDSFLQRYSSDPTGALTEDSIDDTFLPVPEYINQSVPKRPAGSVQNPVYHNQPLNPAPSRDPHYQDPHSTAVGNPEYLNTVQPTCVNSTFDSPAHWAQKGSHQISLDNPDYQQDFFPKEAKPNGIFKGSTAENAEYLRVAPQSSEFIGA
`COc1cc2c(Nc3cc(F)ccc3F)ncnc2cc1O[C@@H]1CO[C@@H]2[C@H]1OC[C@H]2F` [Example 91, 1,4:3,6-dianhydro-2-deoxy-5-O-[4-[(2,5-difluorophenyl)amino]-6-(methyloxy)quinazolin-7-yl]-2-fluoro-D-iditol]: the pIC50 is more than 7.30.
The same measure for `COc1cc2c(Nc3ccc(Cl)c(Cl)c3)ncnc2cc1OCc1cc(Cl)cc2c1OCOC2` [Example 174, 7-{[(6-chloro-4H-1,3-benzodioxin-8-yl)methyl]oxy}-N-(3,4-dichlorophenyl)-6-(methyloxy)quinazolin-4-amine]: more than 7.30.
The same measure for `COc1cc2c(Nc3cccc(C(F)(F)F)c3F)ncnc2cc1O[C@@H]1CO[C@@H]2[C@H]1OC[C@H]2F` [Example 123, 1,4:3,6-dianhydro-2-deoxy-2-fluoro-5-O-[4-{[2-fluoro-3-(trifluoromethyl)phenyl]amino}-6-(methyloxy)quinazolin-7-yl]-D-iditol]: more than 7.30.
Consider `COc1cc2c(Nc3ccc(Cl)c(Cl)c3)ncnc2cc1OCc1c(C(F)(F)F)nn(C)c1Oc1ccc(Cl)cc1Cl` [Example 181, N-(3,4-dichlorophenyl)-7-({[5-[(2,4-dichlorophenyl)oxy]-1-methyl-3-(trifluoromethyl)-1H-pyrazol-4-yl]methyl}oxy)-6-(methyloxy)quinazolin-4-amine], for which the pIC50 was more than 7.30.
The same measure for `COc1cc2c(Nc3ccc(Cl)c(Cl)c3)ncnc2cc1OCc1ccc(Cl)nc1` [Example 171, 7-{[(6-chloropyridin-3-yl)methyl]oxy}-N-(3,4-dichlorophenyl)-6-(methyloxy)quinazolin-4-amine]: more than 7.30; for `COc1cc2c(Nc3cc(C(F)(F)F)ccc3Br)ncnc2cc1O[C@@H]1CO[C@@H]2[C@H]1OC[C@H]2F` [Example 124, 1,4:3,6-dianhydro-5-O-[4-{[2-bromo-5-(trifluoromethyl)phenyl]amino}-6-(methyloxy)quinazolin-7-yl]-2-deoxy-2-fluoro-D-iditol]: more than 7.30; for `COc1cc2c(Nc3c(F)cc(F)cc3F)ncnc2cc1O[C@@H]1CO[C@@H]2[C@H]1OC[C@H]2F` [Example 100, 1,4:3,6-dianhydro-2-deoxy-2-fluoro-5-O-{6-(methyloxy)-4-[(2,4,6-trifluorophenyl)amino]quinazolin-7-yl}-D-iditol]: more than 7.30.
For the compound `COc1cc2c(Nc3ccccc3Cl)ncnc2cc1O[C@@H]1CO[C@@H]2[C@H]1OC[C@H]2F` [Example 112, 1,4:3,6-dianhydro-5-O-[4-[(2-chlorophenyl)amino]-6-(methyloxy)quinazolin-7-yl]-2-deoxy-2-fluoro-D-iditol], the negative-log IC50 (pIC50) was more than 7.30.
As to `C=CCCCCN1CCOC(COc2cc3ncnc(Nc4ccc(Cl)c(Cl)c4)c3cc2OC)C1` (stereo not shown) [Example 274, N-(3,4-dichlorophenyl)-7-{[(4-hex-5-en-1-ylmorpholin-2-yl)methyl]oxy}-6-(methyloxy)quinazolin-4-amine], the negative logarithm of the IC50 (pIC50) was more than 7.30.
The same measure for `CCN1CCC[C@H]1c1noc(COc2cc3ncnc(Nc4ccc(Cl)c(Cl)c4)c3cc2OC)n1` [Example 255, N-(3,4-dichlorophenyl)-7-[({3-[(2S)-1-ethylpyrrolidin-2-yl]-1,2,4-oxadiazol-5-yl}methyl)oxy]-6-(methyloxy)quinazolin-4-amine]: more than 7.30.
The same measure for `COc1cc2c(Nc3ccc(Cl)c(Cl)c3)ncnc2cc1OCc1nc2ccccc2s1` [Example 162, 7-[(1,3-benzothiazol-2-ylmethyl)oxy]-N-(3,4-dichlorophenyl)-6-(methyloxy)quinazolin-4-amine]: more than 7.30; for `COc1cc2c(Nc3ccc(Br)c(Cl)c3)ncnc2cc1O[C@H]1CO[C@@H]2[C@@H](OC)[C@@H](OC)O[C@@H]21` [Example 82, methyl 3,6-anhydro-5-O-[4-[(4-bromo-3-chlorophenyl)amino]-6-(methyloxy)quinazolin-7-yl]-2-O-methyl-beta-L-idofuranoside]: more than 7.30.
As for `COc1cc2c(Nc3ccc(Br)cc3)ncnc2cc1O[C@@H]1CO[C@@H]2[C@H]1OC[C@H]2F` [Example 130, 1,4:3,6-dianhydro-5-O-[4-[(4-bromophenyl)amino]-6-(methyloxy)quinazolin-7-yl]-2-deoxy-2-fluoro-D-iditol], the pIC50 was more than 7.30.
`COc1cc2c(Nc3ccc(Cl)c(Cl)c3)ncnc2cc1OCC1CNCCO1` (stereo not shown) [Example 144, N-(3,4-dichlorophenyl)-6-(methyloxy)-7-[(morpholin-2-ylmethyl)oxy]quinazolin-4-amine]: the negative-log IC50 (pIC50) was more than 7.30.
For the compound `COc1cc2c(Nc3ccccc3Br)ncnc2cc1O[C@@H]1CO[C@@H]2[C@H]1OC[C@H]2F` [Example 128, 1,4:3,6-dianhydro-5-O-[4-[(2-bromophenyl)amino]-6-(methyloxy)quinazolin-7-yl]-2-deoxy-2-fluoro-D-iditol], the negative-log IC50 (pIC50) was more than 7.30.
On to `C=C1CO[C@@H]2[C@@H](Oc3cc4ncnc(Nc5ccc(Br)c(Cl)c5)c4cc3OC)CO[C@H]12` [Example 81, 1,4:3,6-dianhydro-2-O-[4-[(4-bromo-3-chlorophenyl)amino]-6-(methyloxy)quinazolin-7-yl]-5-deoxy-5-methylidene-D-xylo-hexitol], for which the negative logarithm of the IC50 (pIC50) was more than 7.30.
Under `COc1cc2c(Nc3ccc(Cl)c(Cl)c3)ncnc2cc1OCC1CNCCCO1` (stereo not shown) [Example 152, N-(3,4-dichlorophenyl)-6-(methyloxy)-7-[(1,4-oxazepan-2-ylmethyl)oxy]quinazolin-4-amine] stands more than 7.30; under `COc1cc2c(Nc3ccc(Cl)c(Cl)c3)ncnc2cc1OCc1cccc2nsnc12` [Example 159, 7-[(2,1,3-benzothiadiazol-4-ylmethyl)oxy]-N-(3,4-dichlorophenyl)-6-(methyloxy)quinazolin-4-amine], more than 7.30; under `COC(=O)CCN1CCOC(COc2cc3ncnc(Nc4ccc(Cl)c(Cl)c4)c3cc2OC)C1` (stereo not shown) [Example 276, methyl 3-[2-({[4-[(3,4-dichlorophenyl)amino]-6-(methyloxy)quinazolin-7-yl]oxy}methyl)morpholin-4-yl]propanoate], more than 7.30.
Turning to `COc1cc2c(Nc3ccc(Cl)c(Cl)c3)ncnc2cc1OCc1csc(C)n1` [Example 173, N-(3,4-dichlorophenyl)-6-(methyloxy)-7-{[(2-methyl-1,3-thiazol-4-yl)methyl]oxy}quinazolin-4-amine], the negative logarithm of the IC50 (pIC50) is more than 7.30.
Under `COc1cc2c(Nc3cc(F)c(Oc4ccc(Cl)cc4)c(F)c3)ncnc2cc1O[C@@H]1CO[C@@H]2[C@H]1OC[C@H]2F` [Example 101, 1,4:3,6-dianhydro-5-O-[4-({4-[(4-chlorophenyl)oxy]-3,5-difluorophenyl}amino)-6-(methyloxy)quinazolin-7-yl]-2-deoxy-2-fluoro-D-iditol] stands more than 7.30; under `COc1cc2c(Nc3cc(Cl)ccc3F)ncnc2cc1O[C@@H]1CO[C@@H]2[C@H]1OC[C@H]2F` [Example 93, 1,4:3,6-dianhydro-5-O-[4-[(5-chloro-2-fluorophenyl)amino]-6-(methyloxy)quinazolin-7-yl]-2-deoxy-2-fluoro-D-iditol], more than 7.30; under `COc1cc2c(Nc3ccc(F)c(Cl)c3)ncnc2cc1O[C@@H]1CO[C@@H]2[C@H]1OC[C@H]2F` [Example 95, 1,4:3,6-dianhydro-5-O-[4-[(3-chloro-4-fluorophenyl)amino]-6-(methyloxy)quinazolin-7-yl]-2-deoxy-2-fluoro-D-iditol], more than 7.30.
The same measure for `COc1cc2c(Nc3ccc(Cl)cc3)ncnc2cc1O[C@@H]1CO[C@@H]2[C@H]1OC[C@H]2F` [Example 116, 1,4:3,6-dianhydro-5-O-[4-[(4-chlorophenyl)amino]-6-(methyloxy)quinazolin-7-yl]-2-deoxy-2-fluoro-D-iditol]: more than 7.30; for `COc1cc2c(Nc3ccc(C)c(Br)c3)ncnc2cc1O[C@@H]1CO[C@@H]2[C@H]1OC[C@H]2F` [Example 131, 1,4:3,6-dianhydro-5-O-[4-[(3-bromo-4-methylphenyl)amino]-6-(methyloxy)quinazolin-7-yl]-2-deoxy-2-fluoro-D-iditol]: more than 7.30; for `COc1cc2c(Nc3ccccc3F)ncnc2cc1O[C@@H]1CO[C@@H]2[C@H]1OC[C@H]2F` [Example 113, 1,4:3,6-dianhydro-2-deoxy-2-fluoro-5-O-[4-[(2-fluorophenyl)amino]-6-(methyloxy)quinazolin-7-yl]-D-iditol]: more than 7.30.
For the compound `COc1cc2c(Nc3ccc(Cl)c(Cl)c3)ncnc2cc1OCc1noc(COCc2ccccc2)n1` [Example 211, N-(3,4-dichlorophenyl)-6-(methyloxy)-7-{[(5-{[(phenylmethyl)oxy]methyl}-1,2,4-oxadiazol-3-yl)methyl]oxy}quinazolin-4-amine], the pIC50 was more than 7.30.
The same measure for `COc1ccc(-c2cc(COc3cc4ncnc(Nc5ccc(Cl)c(Cl)c5)c4cc3OC)on2)cc1` [Example 180, N-(3,4-dichlorophenyl)-6-(methyloxy)-7-[({3-[4-(methyloxy)phenyl]isoxazol-5-yl}methyl)oxy]quinazolin-4-amine]: more than 7.30; for `COc1cc2c(Nc3ccc(Cl)c(Cl)c3F)ncnc2cc1OC[C@@H]1CN2CCCC[C@@H]2C(=O)N1` [Example 50, (3S,9aR)-3-({[4-[(3,4-dichloro-2-fluorophenyl)amino]-6-(methyloxy)quinazolin-7-yl]oxy}methyl)hexahydro-2H-pyrido[1,2-a]pyrazin-1(6H)-one]: 6.00 to 7.30; for `COc1cc2c(Nc3ccc(Cl)c(Cl)c3)ncnc2cc1OCc1cnn(-c2ccccc2)c1` [Example 165, N-(3,4-dichlorophenyl)-6-(methyloxy)-7-{[(1-phenyl-1H-pyrazol-4-yl)methyl]oxy}quinazolin-4-amine]: more than 7.30.
Consider `COc1cc2c(Nc3ccc(Cl)c(Cl)c3F)ncnc2cc1OCC1CCC2CCCCN2C1` (stereo not shown) [Example 83, N-(3,4-dichloro-2-fluorophenyl)-6-(methyloxy)-7-[(octahydro-2H-quinolizin-3-ylmethyl)oxy]quinazolin-4-amine], for which the negative logarithm of the IC50 (pIC50) is more than 7.30.
